Results reported in PubChem BioAssay (NCI).
Converted amounts (≈) assume the structure as drawn.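 Grown in 96-well plates, cells were treated for 48 hours with each compound at five concentrations. Insufficient inhibition: endpoint recorded as highest concentration tested. GI50: concentration for 50% inhibition of growth. TGI denotes the concentration required for complete inhibition of growth.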

Tests used:
Experiment in all cases: growth of human tumour cells (NCI), 48 h; in the data active = GI50 below about 0.43 µM; inactive = the rest
[1] = tested on: COLO 205 colon
[2] = tested on: SN12C renal
[3] = tested on: CAKI-1 renal
[4] = tested on: 786-0 renal
[5] = tested on: K-562 leukemia
[6] = tested on: IGROV1 ovarian
[7] = tested on: OVCAR-5 ovarian
[8] = tested on: MDA-MB-231 breast
[9] = tested on: OVCAR-4 ovarian
[10] = tested on: SNB-75 CNS
[11] = tested on: U251 CNS
[12] = tested on: BT-549 breast
[13] = tested on: KM12 colon
[14] = tested on: NCI-H460 lung
[15] = tested on: HCT-116 colon
[16] = tested on: TK-10 renal
[17] = tested on: EKVX NSCLC
[18] = tested on: MCF7 breast
[19] = tested on: T-47D breast
[20] = tested on: NCI-H226 lung
[21] = tested on: DU-145 prostate
[22] = tested on: M14 melanoma
[23] = tested on: SF-268 CNS
[24] = tested on: SNB-19 CNS
[25] = tested on: MDA-MB-435
[26] = tested on: RXF 393 renal
[27] = tested on: RPMI-8226 leukemia
[28] = tested on: A498 renal
[29] = tested on: MALME-3M melanoma
[30] = tested on: NCI/ADR-RES ovarian
[31] = tested on: NCI-H23 lung
[32] = tested on: ACHN renal
[33] = tested on: SK-MEL-2 melanoma
[34] = tested on: A549 NSCLC
[35] = tested on: SW-620 colon
[36] = tested on: LOX IMVI melanoma
[37] = tested on: HOP-62 NSCLC
[38] = tested on: OVCAR-8 ovarian
[39] = tested on: SF-295 CNS
[40] = tested on: UACC-257 melanoma
[41] = tested on: PC-3 prostate
[42] = tested on: NCI-H522 lung
[43] = tested on: HS 578T breast
[44] = tested on: HCT-15 colon
[45] = tested on: HOP-92 NSCLC
[46] = tested on: MOLT-4 leukemia
[47] = tested on: CCRF-CEM leukemia
[48] = tested on: OVCAR-3 ovarian
[49] = tested on: UO-31 renal
[50] = tested on: SK-MEL-5 melanoma
[51] = tested on: HCC-2998 colon
[52] = tested on: SK-MEL-28 melanoma
[53] = tested on: HL-60(TB) leukemia
[54] = tested on: SF-539 CNS
[55] = tested on: SK-OV-3 ovarian
[56] = tested on: SR leukemia
[57] = tested on: UACC-62 melanoma
[58] = tested on: HT29 colon
[59] = tested on: MDA-N

Cc1ccc(NC(=S)C#N)c(C)c1
> 71.2 µM: TGI [53]
> 100 µM: TGI [1] | TGI [2] | TGI [3] | TGI [4] | TGI [5] | TGI [6] | TGI [7] | TGI [8] | TGI [9] | TGI [10] | TGI [11] | TGI [12] | TGI [13] | TGI [14] | TGI [15] | TGI [16] | TGI [17] | TGI [18] | TGI [19] | TGI [20] | TGI [21] | TGI [22] | TGI [23] | TGI [24] | TGI [25] | TGI [26] | TGI [28] | TGI [30] | TGI [31] | TGI [32] | TGI [33] | TGI [34] | TGI [35] | TGI [36] | TGI [37] | TGI [38] | TGI [39] | TGI [40] | TGI [41] | TGI [42] | TGI [43] | TGI [44] | TGI [45] | TGI [46] | TGI [47] | TGI [48] | TGI [49] | TGI [50] | TGI [51] | TGI [52] | TGI [54] | TGI [55] | TGI [56] | TGI [57] | TGI [58] | TGI [59]
> 94.9 µM: TGI [29]
76 µM: TGI [27]

CNCC(=O)NC(CO)C(=O)NC(CO)C(=O)NC1C(C(N)=O)OC(n2ccc(N)nc2=O)C(O)C1O (stereo unspecified)
15.9 µg/mL: TGI [36]
8.92 µg/mL: TGI [10]
inactive: GI50 [1] > 50 µg/mL | GI50 [2] 9.89 µg/mL (≈ 18.6 µM) | GI50 [3] 15.7 µg/mL (≈ 29.6 µM) | GI50 [4] 12.5 µg/mL (≈ 23.5 µM) | GI50 [5] > 50 µg/mL | GI50 [6] 3.33 µg/mL (≈ 6.27 µM) | GI50 [7] 9.43 µg/mL (≈ 17.8 µM) | GI50 [8] > 50 µg/mL | GI50 [9] 0.495 µg/mL (≈ 0.934 µM) | GI50 [10] 1.27 µg/mL (≈ 2.4 µM) | GI50 [11] 10.9 µg/mL (≈ 20.5 µM) | GI50 [12] 7.25 µg/mL (≈ 13.7 µM) | GI50 [13] 20.3 µg/mL (≈ 38.3 µM) | GI50 [14] 3.39 µg/mL (≈ 6.38 µM) | GI50 [15] 4.68 µg/mL (≈ 8.81 µM) | GI50 [16] 11 µg/mL (≈ 20.7 µM) | GI50 [17] 7.9 µg/mL (≈ 14.9 µM) | GI50 [18] > 50 µg/mL | GI50 [19] > 50 µg/mL | GI50 [20] 1.65 µg/mL (≈ 3.11 µM) | GI50 [21] 13 µg/mL (≈ 24.5 µM) | GI50 [22] 9.22 µg/mL (≈ 17.4 µM) | GI50 [23] 1.95 µg/mL (≈ 3.67 µM) | GI50 [24] 6.5 µg/mL (≈ 12.3 µM) | GI50 [25] 41.9 µg/mL (≈ 78.9 µM) | GI50 [26] 6.4 µg/mL (≈ 12.1 µM) | GI50 [27] > 50 µg/mL | GI50 [28] 13 µg/mL (≈ 24.5 µM) | GI50 [29] 0.225 µg/mL (≈ 0.424 µM) | GI50 [30] 5.79 µg/mL (≈ 10.9 µM) | GI50 [31] 8.49 µg/mL (≈ 16 µM) | GI50 [32] 5.15 µg/mL (≈ 9.71 µM) | GI50 [33] 4.58 µg/mL (≈ 8.63 µM) | GI50 [34] 17 µg/mL (≈ 32.1 µM) | GI50 [35] > 50 µg/mL | GI50 [36] 2.43 µg/mL (≈ 4.59 µM) | GI50 [37] 6.44 µg/mL (≈ 12.1 µM) | GI50 [38] 12.4 µg/mL (≈ 23.3 µM) | GI50 [39] 2.78 µg/mL (≈ 5.25 µM) | GI50 [40] 13.7 µg/mL (≈ 25.9 µM) | GI50 [41] 10.2 µg/mL (≈ 19.2 µM) | GI50 [42] 1.85 µg/mL (≈ 3.49 µM) | GI50 [43] 1.21 µg/mL (≈ 2.29 µM) | GI50 [44] 15.8 µg/mL (≈ 29.9 µM) | GI50 [45] 4.83 µg/mL (≈ 9.1 µM) | GI50 [46] > 50 µg/mL | GI50 [47] > 50 µg/mL | GI50 [48] 8.43 µg/mL (≈ 15.9 µM) | GI50 [49] 12.4 µg/mL (≈ 23.3 µM) | GI50 [50] 16.1 µg/mL (≈ 30.3 µM) | GI50 [51] 20.6 µg/mL (≈ 38.8 µM) | GI50 [52] 21.7 µg/mL (≈ 41 µM) | GI50 [53] > 50 µg/mL | GI50 [54] 5.01 µg/mL (≈ 9.45 µM) | GI50 [55] 7.66 µg/mL (≈ 14.4 µM) | GI50 [56] 16.8 µg/mL (≈ 31.7 µM) | GI50 [57] 2.88 µg/mL (≈ 5.43 µM) | GI50 [58] 25.9 µg/mL (≈ 48.8 µM) | GI50 [59] 12.4 µg/mL (≈ 23.3 µM)
15.6 µg/mL: TGI [23]
31.3 µg/mL: TGI [14]
26.4 µg/mL: TGI [6]
4.42 µg/mL: TGI [43]
13.9 µg/mL: TGI [20]
17 µg/mL: TGI [39]
28.7 µg/mL: TGI [54]
47.5 µg/mL: TGI [41]
29.6 µg/mL: TGI [48]
45.1 µg/mL: TGI [24]
16.8 µg/mL: TGI [57]
28 µg/mL: TGI [30]
48.8 µg/mL: TGI [31]
35.3 µg/mL: TGI [22]
25.3 µg/mL: TGI [12]
3.41 µg/mL: TGI [9]
7.58 µg/mL: TGI [29]
8.98 µg/mL: TGI [42]
> 50 µg/mL: TGI [1] | TGI [2] | TGI [3] | TGI [4] | TGI [5] | TGI [7] | TGI [8] | TGI [11] | TGI [13] | TGI [16] | TGI [18] | TGI [19] | TGI [21] | TGI [25] | TGI [27] | TGI [28] | TGI [32] | TGI [34] | TGI [35] | TGI [38] | TGI [40] | TGI [44] | TGI [45] | TGI [46] | TGI [47] | TGI [49] | TGI [50] | TGI [51] | TGI [52] | TGI [53] | TGI [56] | TGI [58] | TGI [59]
31.8 µg/mL: TGI [17]
40.3 µg/mL: TGI [15]
35.4 µg/mL: TGI [26]
23.7 µg/mL: TGI [33]
32.3 µg/mL: TGI [37]
41.7 µg/mL: TGI [55]

O=C(NNc1ccccc1)c1ccc(Cl)c(Cl)c1
0.414 µM: TGI [1]
> 67.8 µM: TGI [10]
> 92.5 µM: TGI [29]
13.9 µM: TGI [40]
> 60.7 µM: TGI [6]
> 100 µM: TGI [2] | TGI [4] | TGI [5] | TGI [7] | TGI [8] | TGI [9] | TGI [11] | TGI [14] | TGI [15] | TGI [16] | TGI [18] | TGI [19] | TGI [20] | TGI [21] | TGI [22] | TGI [23] | TGI [24] | TGI [25] | TGI [30] | TGI [31] | TGI [32] | TGI [34] | TGI [35] | TGI [36] | TGI [37] | TGI [38] | TGI [41] | TGI [43] | TGI [44] | TGI [45] | TGI [46] | TGI [47] | TGI [49] | TGI [52] | TGI [56] | TGI [57] | TGI [58] | TGI [59]
41.6 µM: TGI [50]
> 54.4 µM: TGI [27]
> 59.5 µM: TGI [3]
99.4 µM: TGI [17]
> 75.9 µM: TGI [13]
70.4 µM: TGI [53]
36.2 µM: TGI [33]
> 40.9 µM: TGI [51]
59.7 µM: TGI [28]
0.133 µM: TGI [54]
> 84 µM: TGI [26]
> 86.5 µM: TGI [39]
> 94 µM: TGI [48]
23 µM: TGI [42]
> 80.1 µM: TGI [55]
> 66.8 µM: TGI [12]
